Patent US20220370440A1 (Lead Discovery Center GmbH, priority 2018, published 2022)
Where two headings read alike, the source gives them in different places.

Assays:
HER2 INS YVMA = biological target: T1, HER2 INS YVMA (Homo sapiens, UniProt P04626, INS775YVMA); assay: Lance Kinase Activity Assay, HER2 INS YVMA (Her2 Exon 20 INSYVMA Lance); format: biochemical
T1 construct: purchased DPF
Experimental: 1. Measurement of HER2 INS YVMA Kinase Activity
This protocol describes how the Lance Kinase Activity Assay was performed to determine IC50 values of compounds of general formula (I) against HER2 INS YVMA. The principle behind this enzymatic assay is based upon the phosphorylation of the Ulight-peptide substrate. It is detected by using a specific EU-labeled anti-phospho peptide antibody. The binding of the Eu labeled anti-phospho peptide antibody to the phosphorylated ULight labeled peptide gives rise to a FRET-signal.
Binding of an inhibitor to the kinase prevents phosphorylation of the Ulight-substrate, resulting in a loss of FRET. In table 2 is summarized the relevant information for the LANCE assay.
The compounds of general formula (I) summarized in Table 3 were serial diluted from a 10 mM DMSO stock solution 1:3 over 8 steps in a total volume of 20 μl.
For every sample, 8 μl of kinase-substrate mix was transferred into a suitable assay plate (e.g. Corning #3673). Compound was added via pintool transfer (10 nl/well) using a Biomek FX robot (BeckmanCoulter). Reaction was started by addition of 2 μl ATP working solution and mixed using variomag teleshaker (Thermo Fischer Scientific). After 1 h incubation at room temperature the reaction was stopped with 10 μl detection mix containing the Eu-labeled phosphospecific antibody and 10 mM EDTA. After a second incubation period of 1 h at room temperature the FRET signal was measured at 340 nm excitation, 665 nm and 615 nm emission (for the ULight-substrate and Eu-AB, respectively) with an Envision spectrophotometer (Perkin Elmer, Waltham, Mass., USA) with 50 μs delay and 300 μs integration time. IC50 values were determined from the sigmoidal dose response curves with the software Quattro Workflow (Quattro GmbH, Munich, Germany).

[1] = biological target: Her2 Exon 20 INSYVMA Ba/F3 (Homo sapiens, UniProt P04626, DUP772-775, cells depend on it); assay: Her2 Exon 20 INSYVMA Ba/F3 CellTiter-Glo; format: cell-based; conditions: 72 h, read-out: Her2 Exon 20 INSYVMA Ba/F3 CTG IC50
Experimental: (§1) 2. Measurement of Cellular Activity
(§2) The CellTiter-Glo Luminescent Cell Viability Assay (Promega) is a homogeneous method of determining the number of viable cells in culture. It is based on quantification of ATP, indicating the presence of metabolically active cells. Cells are seeded on day 1 at cell numbers that assure assay linearity and optimal signal intensity. After incubation for 24 h in humidified chambers at 37° C. and 5% CO2, compounds in DMSO are added at different concentrations. Cells are further incubated for 72 h at 37° C. and 5% CO2. Cells treated with the compound vehicle DMSO are used as positive controls and cells treated with 10 μM Staurosporine serve as negative controls. At day 5 the CellTiter Glo Reagent is prepared according to the instructions of the kit (Promega Inc.): Reagent is mixed 1:1 with cell culture medium. Thereon, mixture and assay plates are equilibrated at room temperature for 20 min. Equal volumes of the reagent-medium-mixture is added to the volume of culture medium present in each well. The plates are mixed at ˜200 rpm for 2 minutes on an orbital shaker. The microplates are then incubated at room temperature for 10 minutes for stabilization of the luminescent signal. Following incubation the luminescence is recorded on a Victor microplate reader (Perkin Elmer) using a 200 ms integration time. The data is then analyzed with Excel using the XLFIT Plugin (dose response Fit 205) for IC50-determination. As quality control the Z′-factor is calculated from 16 positive and negative control values. Only assay results showing a Z′-factor ≥0.5 are used for further analysis.
(§3) Inhibition is indicated as IC50 [nM] (“−”=not measured). Compounds having an activity designated as “A” provided an IC50≤100 nM; compounds having an activity designated as “B” provided an 100 nM<IC50≤500 nM; compounds having an activity designated as “C” provided an 500 nM<IC50≤1000 nM; compounds having an activity designated as “D” provided an 1000 nM<IC50≤10000 nM; and compounds having an activity designated as “E” provided an IC50>10000 nM.

[2] = biological target: EGFR Exon 20 INSNPH Ba/F3 (Homo sapiens, UniProt P00533, DUP771-773, cells depend on it); assay: EGFR Exon 20 INSNPH Ba/F3 CellTiter-Glo; format: cell-based; conditions: 72 h, read-out: EGFR Exon 20 INSNPH Ba/F3 CTG IC50
Experimental: as §1, §2, §3

EGFR T790ML858R = EGFR T790ML858R (Homo sapiens, UniProt P00533, L858R/T790M); assay: EGFR T790ML858R Lance assay; format: biochemical
Experimental: (§4) Inhibition is indicated as […] [nM] (“−”=not measured). Compounds having an activity designated as “A” provided an IC50≤100 nM; compounds having an activity designated as “B” provided an 100 nM<IC50≤500 nM; compounds having an activity designated as “C” provided an 500 nM<IC50≤1000 nM; compounds having an activity designated as “D” provided an 1000 nM<IC50≤100000 nM; and compounds having an activity designated as “E” provided an IC50>10000 nM.

EGFR wt = EGFR wt (Homo sapiens, UniProt P00533); assay: EGFR wt Lance assay; format: biochemical
Experimental: as §4

H1975 = H1975 CellTiter-Glo; format: cell-based; conditions: Homo sapiens, NCI-H1975; 72 h compound incubation; read-out: H1975 CTG IC50
Experimental: as §1, §2, §4

Sequence of EGFR wt (P00533 25-1210): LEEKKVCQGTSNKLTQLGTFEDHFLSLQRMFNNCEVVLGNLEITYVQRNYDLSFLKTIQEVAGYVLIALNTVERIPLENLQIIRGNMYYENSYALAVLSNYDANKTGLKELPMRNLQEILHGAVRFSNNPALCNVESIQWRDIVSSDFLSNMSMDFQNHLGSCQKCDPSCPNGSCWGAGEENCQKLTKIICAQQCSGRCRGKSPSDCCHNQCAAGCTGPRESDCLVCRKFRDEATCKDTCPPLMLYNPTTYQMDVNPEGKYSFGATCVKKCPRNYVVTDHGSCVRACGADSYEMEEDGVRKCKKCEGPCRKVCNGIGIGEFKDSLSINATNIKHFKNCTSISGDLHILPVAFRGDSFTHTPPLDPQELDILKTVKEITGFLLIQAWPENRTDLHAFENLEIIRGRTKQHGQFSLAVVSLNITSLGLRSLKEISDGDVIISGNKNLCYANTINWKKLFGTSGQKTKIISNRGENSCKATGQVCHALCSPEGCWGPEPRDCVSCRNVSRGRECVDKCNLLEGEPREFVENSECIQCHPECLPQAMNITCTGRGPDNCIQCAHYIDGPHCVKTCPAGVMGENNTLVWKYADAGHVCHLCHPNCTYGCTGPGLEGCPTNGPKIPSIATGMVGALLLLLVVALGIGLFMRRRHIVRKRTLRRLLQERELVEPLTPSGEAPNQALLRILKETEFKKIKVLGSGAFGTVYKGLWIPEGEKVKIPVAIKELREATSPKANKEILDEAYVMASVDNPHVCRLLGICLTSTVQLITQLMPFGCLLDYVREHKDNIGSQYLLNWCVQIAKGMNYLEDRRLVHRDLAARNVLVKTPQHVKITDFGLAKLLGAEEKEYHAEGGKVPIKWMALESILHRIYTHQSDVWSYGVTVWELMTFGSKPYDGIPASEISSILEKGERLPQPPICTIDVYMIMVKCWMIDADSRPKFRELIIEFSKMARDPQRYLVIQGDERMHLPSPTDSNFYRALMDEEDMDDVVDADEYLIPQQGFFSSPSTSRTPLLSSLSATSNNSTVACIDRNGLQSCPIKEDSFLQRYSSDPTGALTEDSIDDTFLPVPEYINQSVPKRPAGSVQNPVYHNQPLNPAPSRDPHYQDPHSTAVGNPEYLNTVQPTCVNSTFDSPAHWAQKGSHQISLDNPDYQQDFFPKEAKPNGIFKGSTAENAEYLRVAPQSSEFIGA
Sequence of Her2 Exon 20 INSYVMA Ba/F3 (P04626 with tags, fused parts or gaps DUP772-775): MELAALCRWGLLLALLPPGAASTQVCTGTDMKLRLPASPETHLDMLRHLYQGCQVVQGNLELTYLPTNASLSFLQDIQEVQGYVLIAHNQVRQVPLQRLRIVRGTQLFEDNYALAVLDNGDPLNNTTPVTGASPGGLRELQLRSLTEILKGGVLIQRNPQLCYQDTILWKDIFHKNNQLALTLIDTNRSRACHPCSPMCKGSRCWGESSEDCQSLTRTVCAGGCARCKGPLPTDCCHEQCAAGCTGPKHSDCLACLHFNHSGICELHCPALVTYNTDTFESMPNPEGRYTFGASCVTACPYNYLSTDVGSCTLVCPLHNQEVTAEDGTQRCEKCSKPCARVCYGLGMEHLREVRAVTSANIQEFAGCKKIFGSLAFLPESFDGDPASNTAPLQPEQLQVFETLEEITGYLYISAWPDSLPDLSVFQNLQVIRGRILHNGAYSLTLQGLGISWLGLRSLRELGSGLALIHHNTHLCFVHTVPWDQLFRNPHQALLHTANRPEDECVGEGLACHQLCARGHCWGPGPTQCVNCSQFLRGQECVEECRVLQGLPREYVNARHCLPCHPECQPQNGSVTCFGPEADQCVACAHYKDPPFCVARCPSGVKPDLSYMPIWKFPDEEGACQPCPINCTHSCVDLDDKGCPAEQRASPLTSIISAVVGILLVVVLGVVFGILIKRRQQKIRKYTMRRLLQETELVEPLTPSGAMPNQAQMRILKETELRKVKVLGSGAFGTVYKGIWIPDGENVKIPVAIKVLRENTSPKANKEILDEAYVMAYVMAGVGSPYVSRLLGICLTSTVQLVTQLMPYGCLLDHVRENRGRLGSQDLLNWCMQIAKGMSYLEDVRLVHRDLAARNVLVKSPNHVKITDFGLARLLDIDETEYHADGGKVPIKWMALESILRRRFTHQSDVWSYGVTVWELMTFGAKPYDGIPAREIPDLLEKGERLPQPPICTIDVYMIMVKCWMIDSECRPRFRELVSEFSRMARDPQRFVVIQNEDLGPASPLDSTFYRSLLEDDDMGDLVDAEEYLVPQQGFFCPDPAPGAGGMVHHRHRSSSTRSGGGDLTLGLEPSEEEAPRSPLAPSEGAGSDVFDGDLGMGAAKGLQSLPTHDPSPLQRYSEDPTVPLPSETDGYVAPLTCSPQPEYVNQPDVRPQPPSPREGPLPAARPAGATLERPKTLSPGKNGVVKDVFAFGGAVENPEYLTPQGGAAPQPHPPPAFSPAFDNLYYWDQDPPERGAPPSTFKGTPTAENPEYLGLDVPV
Sequence of EGFR Exon 20 INSNPH Ba/F3 (P00533 with tags, fused parts or gaps DUP771-773): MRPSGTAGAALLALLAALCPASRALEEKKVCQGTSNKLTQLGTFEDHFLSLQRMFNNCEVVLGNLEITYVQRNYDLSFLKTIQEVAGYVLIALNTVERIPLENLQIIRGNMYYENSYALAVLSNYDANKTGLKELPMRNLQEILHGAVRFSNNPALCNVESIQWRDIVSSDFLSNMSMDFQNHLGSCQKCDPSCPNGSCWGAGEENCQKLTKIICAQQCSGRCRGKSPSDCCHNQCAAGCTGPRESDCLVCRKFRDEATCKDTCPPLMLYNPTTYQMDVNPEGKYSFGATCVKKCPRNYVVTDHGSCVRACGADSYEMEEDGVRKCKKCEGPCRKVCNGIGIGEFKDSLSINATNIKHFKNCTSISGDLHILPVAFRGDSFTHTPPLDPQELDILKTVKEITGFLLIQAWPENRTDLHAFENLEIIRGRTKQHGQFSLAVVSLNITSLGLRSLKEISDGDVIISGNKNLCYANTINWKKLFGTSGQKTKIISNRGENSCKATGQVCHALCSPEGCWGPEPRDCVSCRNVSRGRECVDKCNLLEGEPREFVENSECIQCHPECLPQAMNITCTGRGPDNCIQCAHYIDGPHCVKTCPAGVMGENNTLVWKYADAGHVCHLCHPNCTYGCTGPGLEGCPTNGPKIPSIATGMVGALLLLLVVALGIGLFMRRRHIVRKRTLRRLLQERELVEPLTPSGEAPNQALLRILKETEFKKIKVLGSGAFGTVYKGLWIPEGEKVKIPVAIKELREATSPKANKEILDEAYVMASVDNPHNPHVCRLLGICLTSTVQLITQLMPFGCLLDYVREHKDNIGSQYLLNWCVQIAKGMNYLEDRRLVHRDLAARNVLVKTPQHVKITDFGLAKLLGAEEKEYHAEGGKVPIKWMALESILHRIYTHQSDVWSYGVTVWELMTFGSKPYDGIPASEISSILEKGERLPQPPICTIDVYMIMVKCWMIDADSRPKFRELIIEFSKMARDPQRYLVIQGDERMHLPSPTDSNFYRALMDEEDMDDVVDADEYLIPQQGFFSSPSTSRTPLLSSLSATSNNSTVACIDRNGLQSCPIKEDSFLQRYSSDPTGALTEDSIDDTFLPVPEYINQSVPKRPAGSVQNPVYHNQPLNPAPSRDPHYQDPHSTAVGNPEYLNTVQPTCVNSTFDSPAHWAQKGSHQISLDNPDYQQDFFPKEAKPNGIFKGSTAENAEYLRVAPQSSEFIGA
Sequence of EGFR T790ML858R (P00533 25-1210 T790M/L858R): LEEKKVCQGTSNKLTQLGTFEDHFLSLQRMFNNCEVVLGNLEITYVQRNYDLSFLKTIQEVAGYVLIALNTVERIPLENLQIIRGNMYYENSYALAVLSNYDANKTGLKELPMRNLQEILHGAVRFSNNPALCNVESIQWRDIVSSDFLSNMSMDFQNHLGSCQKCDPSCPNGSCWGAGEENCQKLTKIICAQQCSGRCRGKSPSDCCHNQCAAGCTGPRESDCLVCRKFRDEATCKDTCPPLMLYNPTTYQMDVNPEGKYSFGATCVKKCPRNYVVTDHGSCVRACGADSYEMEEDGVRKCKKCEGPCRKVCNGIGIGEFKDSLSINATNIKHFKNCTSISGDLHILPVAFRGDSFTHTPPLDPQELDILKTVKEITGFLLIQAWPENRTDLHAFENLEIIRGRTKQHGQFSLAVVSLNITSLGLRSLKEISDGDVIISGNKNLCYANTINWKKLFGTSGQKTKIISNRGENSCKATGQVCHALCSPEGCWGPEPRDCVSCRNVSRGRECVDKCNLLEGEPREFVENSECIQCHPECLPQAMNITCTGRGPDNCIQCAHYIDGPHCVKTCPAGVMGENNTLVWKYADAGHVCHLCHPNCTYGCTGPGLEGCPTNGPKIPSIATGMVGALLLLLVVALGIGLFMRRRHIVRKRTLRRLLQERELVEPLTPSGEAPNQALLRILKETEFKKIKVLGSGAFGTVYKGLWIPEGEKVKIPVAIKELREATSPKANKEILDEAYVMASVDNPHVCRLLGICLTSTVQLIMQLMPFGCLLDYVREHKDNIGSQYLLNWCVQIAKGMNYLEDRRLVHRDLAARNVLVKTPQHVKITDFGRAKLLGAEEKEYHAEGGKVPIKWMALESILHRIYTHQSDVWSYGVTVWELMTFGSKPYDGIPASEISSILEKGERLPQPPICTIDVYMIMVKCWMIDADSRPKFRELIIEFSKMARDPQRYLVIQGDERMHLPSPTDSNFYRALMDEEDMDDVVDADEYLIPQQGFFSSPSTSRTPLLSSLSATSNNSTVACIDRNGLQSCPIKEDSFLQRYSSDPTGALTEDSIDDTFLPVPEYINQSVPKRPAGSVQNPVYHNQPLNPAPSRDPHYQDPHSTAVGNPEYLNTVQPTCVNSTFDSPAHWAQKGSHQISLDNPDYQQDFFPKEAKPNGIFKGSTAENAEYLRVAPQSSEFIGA

Compound | IC50 (HER2 INS YVMA; biochemical Lance assay) | GI50 ([1]; CellTiter-Glo) | GI50 ([2]; CellTiter-Glo) | IC50 (EGFR T790ML858R) | IC50 (EGFR wt) | IC50 (H1975) | IC50 (HER2 INS YVMA) | GI50 [1] | GI50 [2]
C=CC(=O)Nc1cc(-c2c(-c3cccc(C(=O)N4CCCCCC4)c3)[nH]c3nccc(Cl)c23)ccc1C [Example 45, N-(5-(2-(3-(azepane-1-carbonyl)phenyl)-4-chloro-1H-pyrrolo[2,3-b]pyridin-3-yl)-2-methylphenyl)acrylamide] | > 10000 nM | 1000 to 10000 nM | 1000 to 10000 nM | 100 to 500 nM | 1000 to 100000 nM | 1000 to 100000 nM |  |  | 
C=CC(=O)Nc1cc(-c2c(-c3ccc(F)c(C(=O)N4CCOCC4)c3)[nH]c3nccc(Cl)c23)ccc1C [Example 33, N-(5-(4-chloro-2-(4-fluoro-3-(morpholine-4-carbonyl)phenyl)-1H-pyrrolo[2,3-b]pyridin-3-yl)-2-methylphenyl)acrylamide] | 1000 to 10000 nM | 1000 to 10000 nM | 1000 to 10000 nM | 100 to 500 nM | 500 to 1000 nM | 100 to 500 nM |  |  | 
C=CC(=O)Nc1cc(-c2c(-c3cccc(C(=O)N4CCC5(CCNC5=O)CC4)c3)[nH]c3nccc(Cl)c23)ccc1C [Example 46, N-(5-(4-chloro-2-(3-(1-oxo-2,8-diazaspiro[4.5]decane-8-carbonyl)phenyl)-1H-pyrrolo[2,3-b]pyridin-3-yl)-2-methylphenyl)acrylamide] | 1000 to 10000 nM | 1000 to 10000 nM | 1000 to 10000 nM | ≤ 100 nM | 500 to 1000 nM | 1000 to 100000 nM |  |  | 
C=CC(=O)Nc1cc(-c2c(-c3cccc(C(=O)N4CCN(C)CC4)c3)[nH]c3nccc(Cl)c23)ccc1C [Example 44, N-(5-(4-chloro-2-(3-(4-methylpiperazine-1-carbonyl)phenyl)-1H-pyrrolo[2,3-b]pyridin-3-yl)-2-methylphenyl)acrylamide 2,2,2-trifluoroacetate] | 100 to 500 nM | 1000 to 10000 nM | 1000 to 10000 nM | ≤ 100 nM | 100 to 500 nM | 100 to 500 nM |  |  | 
CCC(=O)Nc1cc(-c2c(-c3ccc(N4CCN(C)CC4)cc3)[nH]c3nccc(Cl)c23)ccc1C [reference compound] |  |  |  |  |  |  | 916 nM | 754 nM | 1310 nM
C=CC(=O)Nc1cc(-c2c(-c3cccc(C(=O)N4CCN(C(C)=O)CC4)c3)[nH]c3nccc(Cl)c23)ccc1C [Example 52, N-(5-(2-(3-(4-acetylpiperazine-1-carbonyl)phenyl)-4-chloro-1H-pyrrolo[2,3-b]pyridin-3-yl)-2-methylphenyl)acrylamide] | 100 to 500 nM | 1000 to 10000 nM | 1000 to 10000 nM | ≤ 100 nM | 100 to 500 nM | 100 to 500 nM |  |  | 
C=CC(=O)Nc1cc(-c2c(-c3ccc(N4CCN(C)CC4)cc3)[nH]c3nccc(Cl)c23)ccc1C [drawing 711] |  |  |  |  |  |  | 5 nM | 64 nM | 35 nM
C=CC(=O)Nc1cc(-c2c(-c3cccc(C(=O)NC4CC4)c3)[nH]c3nccc(Cl)c23)ccc1C [Example 49, 3-(3-(3-acrylamido-4-methylphenyl)-4-chloro-1H-pyrrolo[2,3-b]pyridin-2-yl)-N-cyclopropylbenzamide] | 500 to 1000 nM | 500 to 1000 nM | 1000 to 10000 nM | ≤ 100 nM | 100 to 500 nM | 100 to 500 nM |  |  | 
C=CC(=O)Nc1cc(-c2c(-c3cccc(C(=O)NC4CCCCC4)c3)[nH]c3nccc(Cl)c23)ccc1C [Example 50, 3-(3-(3-acrylamido-4-methylphenyl)-4-chloro-1H-pyrrolo[2,3-b]pyridin-2-yl)-N-cyclohexylbenzamide] | > 10000 nM | 1000 to 10000 nM | 1000 to 10000 nM | 100 to 500 nM | 1000 to 100000 nM | 500 to 1000 nM |  |  | 
C=CC(=O)Nc1cc(-c2c(-c3ccc(Cl)c(C(=O)N4CCOCC4)c3)[nH]c3nccc(Cl)c23)ccc1C [Example 34, N-(5-(4-chloro-2-(4-chloro-3-(morpholine-4-carbonyl)phenyl)-1H-pyrrolo[2,3-b]pyridin-3-yl)-2-methylphenyl)acrylamide] | 1000 to 10000 nM | 1000 to 10000 nM | 1000 to 10000 nM | 100 to 500 nM | 1000 to 100000 nM | 500 to 1000 nM |  |  | 
